Results as given in patent EP0428423A2, “Aryloxy alkyl benzenes, processes for their preparation and pharmaceutical compositions containing them” (LIPHA S.A., priority 1989, dated 1991).

What was measured:
RAT = test: Diuretic activity in the rat (hourly urine volume, sodium and potassium assay); assay type: in vivo; settings: po; R = RAT; diuretic activity; read-out: Dose minimale active
From the text: (§1) d'urine sont déterminés toutes les heures. Le dosage de sodium et du potassium est effectué par spectrophotométrie.

SOURIS = test: Diuretic activity in the mouse (hourly urine volume, sodium and potassium assay); assay type: in vivo; settings: Mus musculus, po; S = SOURIS; diuretic activity; read-out: Dose minimale active
From the text: as §1

[1] = system: rats mâles SHR (souche OKAMOTO); test: Antihypertensive action in the non-anaesthetised SHR rat (systolic blood pressure, sphygmomanometric method); assay type: in vivo; settings: A = Aigu, 100 mg/kg PO, 24 h after dosing
From the text: L'étude a été effectuée sur des lots de rats mâles SHR (souche OKAMOTO) âgés de 16 semaines. La pression artérielle systolique est déterminée par la méthode sphygmomanométrique (électro sphygmogra- phe NARCO biosystems type PE 300). Les mesures de tension sont réalisées 24 heures après administration d'un composé de formule générale I, la pression artérielle systolique est calculée à partir de la moyenne de 6 à 8 mesures.

COTRANSPORT Na-K = target: T1, COTRANSPORT Na-K (Homo sapiens, UniProt P55011); test: Na-K cotransport of human erythrocytes; assay type: cell-based, ERYTHROCYTES HUMAINS; settings: human erythrocytes; read-out: EFFET SUR LE COTRANSPORT Na-K IC 50
T1 construct: systèmes de transport du sodium et du potassium des érythrocytes humains; endogenous in cells; host or cells: human erythrocytes
T1 sequence (P55011 1-1212): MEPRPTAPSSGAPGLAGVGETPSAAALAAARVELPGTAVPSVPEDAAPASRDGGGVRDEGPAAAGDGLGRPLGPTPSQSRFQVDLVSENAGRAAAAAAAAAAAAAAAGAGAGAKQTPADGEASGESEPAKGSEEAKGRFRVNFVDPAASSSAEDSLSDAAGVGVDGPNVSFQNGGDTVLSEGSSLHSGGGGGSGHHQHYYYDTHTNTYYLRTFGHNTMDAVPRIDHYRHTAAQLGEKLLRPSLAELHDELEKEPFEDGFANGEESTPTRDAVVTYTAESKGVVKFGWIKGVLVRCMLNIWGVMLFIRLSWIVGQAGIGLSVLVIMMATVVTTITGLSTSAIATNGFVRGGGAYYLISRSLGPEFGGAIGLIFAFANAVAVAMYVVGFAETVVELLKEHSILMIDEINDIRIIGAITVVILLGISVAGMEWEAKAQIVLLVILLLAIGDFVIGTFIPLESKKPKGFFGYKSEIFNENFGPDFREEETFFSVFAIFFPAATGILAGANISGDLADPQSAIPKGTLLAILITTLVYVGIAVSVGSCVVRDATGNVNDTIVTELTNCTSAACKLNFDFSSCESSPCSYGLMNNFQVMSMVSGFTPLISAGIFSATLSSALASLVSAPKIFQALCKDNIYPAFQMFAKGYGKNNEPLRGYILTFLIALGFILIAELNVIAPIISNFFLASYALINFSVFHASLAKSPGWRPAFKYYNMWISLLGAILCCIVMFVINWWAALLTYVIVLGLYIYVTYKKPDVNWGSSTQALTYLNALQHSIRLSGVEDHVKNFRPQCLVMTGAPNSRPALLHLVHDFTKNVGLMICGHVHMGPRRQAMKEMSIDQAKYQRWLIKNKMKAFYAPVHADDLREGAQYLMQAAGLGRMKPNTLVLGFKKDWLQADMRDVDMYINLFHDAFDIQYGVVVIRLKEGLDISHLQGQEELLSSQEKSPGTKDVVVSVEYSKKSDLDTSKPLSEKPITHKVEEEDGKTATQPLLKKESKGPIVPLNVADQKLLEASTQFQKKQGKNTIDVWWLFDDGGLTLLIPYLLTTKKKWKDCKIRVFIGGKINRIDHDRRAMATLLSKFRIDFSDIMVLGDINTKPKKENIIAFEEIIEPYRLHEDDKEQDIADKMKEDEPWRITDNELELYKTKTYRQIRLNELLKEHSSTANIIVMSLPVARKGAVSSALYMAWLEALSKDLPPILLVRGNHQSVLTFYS
From the text: Cet effet a été étudié selon la méthodologie décrite par G. GARAY et coll. dans Naunyn-Schmidberg's Arch. Pharmakol. […] Pharm.

ECHANGEUR D'ANIONS = target: T2, ECHANGEUR D'ANIONS (Homo sapiens, UniProt P02730); test: Anion exchanger of human erythrocytes; assay type: cell-based, ERYTHROCYTES HUMAINS; settings: read-out: EFFET SUR L'ECHANGEUR D'ANIONS IC 50
T2 construct: systèmes de transport du sodium et du potassium des érythrocytes humains; endogenous in cells; host or cells: human erythrocytes
T2 sequence (P02730 1-911): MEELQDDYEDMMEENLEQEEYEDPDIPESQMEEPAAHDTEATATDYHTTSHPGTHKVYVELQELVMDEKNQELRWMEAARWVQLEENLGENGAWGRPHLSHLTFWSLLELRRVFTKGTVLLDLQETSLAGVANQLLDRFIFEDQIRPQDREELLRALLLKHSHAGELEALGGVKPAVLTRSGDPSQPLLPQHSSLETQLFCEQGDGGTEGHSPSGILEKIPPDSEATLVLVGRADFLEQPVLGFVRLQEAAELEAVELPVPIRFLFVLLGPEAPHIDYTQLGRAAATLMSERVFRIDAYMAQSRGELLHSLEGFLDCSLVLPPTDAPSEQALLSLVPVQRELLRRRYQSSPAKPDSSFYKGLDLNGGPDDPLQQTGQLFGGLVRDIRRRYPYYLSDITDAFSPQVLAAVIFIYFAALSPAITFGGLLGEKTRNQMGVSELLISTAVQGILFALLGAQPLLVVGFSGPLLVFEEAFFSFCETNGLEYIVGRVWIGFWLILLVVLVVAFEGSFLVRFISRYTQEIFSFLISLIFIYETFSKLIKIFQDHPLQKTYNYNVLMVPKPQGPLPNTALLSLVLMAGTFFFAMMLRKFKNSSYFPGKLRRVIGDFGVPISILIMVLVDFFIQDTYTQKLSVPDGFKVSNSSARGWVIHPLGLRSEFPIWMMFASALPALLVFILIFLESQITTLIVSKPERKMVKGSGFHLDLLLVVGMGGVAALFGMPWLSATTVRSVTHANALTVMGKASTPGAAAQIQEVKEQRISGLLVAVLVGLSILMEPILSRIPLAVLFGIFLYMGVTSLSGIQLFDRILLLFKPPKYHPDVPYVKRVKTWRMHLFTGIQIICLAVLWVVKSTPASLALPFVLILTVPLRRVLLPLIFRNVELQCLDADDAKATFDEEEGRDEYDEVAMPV
From the text: Cet effet a été étudié selon la méthodologie décrite par G. GARAY et coll. dans Naunyn-Schmidberg's Arch. Pharmakol. 334 (1986) 202-209 et dans Bioch. Pharm. 33 (1984) 2013-2020.

IC50 (COTRANSPORT Na-K): > 600 µM
IC50 (ECHANGEUR D'ANIONS): 800 nM
Structure (SMILES): Cc1ccc(O)c(CCOc2ccccc2)c1 [ex 36]
minimal effective dose (RAT): 100 mg/kg
minimal effective dose (SOURIS): 100 mg/kg
Variation de l'effet anti-hyper-tenseur 24 heures après produit [1]: Non actif
